Reference: patent publication US3982931A, “N,N-di-sec.butyl-benzamide herbicides” (priority 1967, dated 1976)

How the values were obtained:
Assay in all cases: herbicidal activity, soil treatment one day after sowing
Assay type in all cases: in vivo
[1] = system: artemisia vulgaris L.; conditions: 6 kg/ha
Description: (§1) The infesting species and the agrarian species have been indicated in Table 1 by letters, as follows:
B = artemisia vulgaris L.
(§2) Method of evaluation of the results (of tests):
(§3) 1 slight differences with respect to the control;
(§4) 3 = considerable activity with damages that definitely impair the further development of most of the small plants; an activity degree already useful for practical purposes;
(§5) 4 = maximum of activity with lack of germination or total containment of the small plants in the emerging stage.
(§6) In the case of an intermediate activity between two classes of the scale, both values are recorded with the one which corresponds to the preeminent activity preceding.
(§7) TABLE 2 reports the activity data of other compounds that fall within the class which is the object of this invention.
(§8) TABLE 3 reports data on the herbicidal activity against infesting herbs, while TABLE 4 reports data concerning the activity on useful species of agricultural cultivations. These tables employ the criterion explained previously. […]

[2] = system: echinocloa crus-galli R.S.
Description: as §1
D = echinocloa crus-galli R.S.
as §2, §3, §4, §5, §6, §7, §8

[3] = system: vicia sativa L.; conditions: 6 kg/ha
Description: as §1, §2, §3, §4, §5, §6, §7

[4] = system: amaranthus retroflexus L.; conditions: 6 kg/ha
Description: as §1
A = amaranthus retroflexus L.
as §2, §3, §4, §5, §6, §7, §8

[5] = system: chenopodium album L.; conditions: 6 kg/ha
Description: as §1, §2, §3, §4, §5, §6, §7, §8

[6] = system: setaria glauca L.
Description: as §1, §2, §3, §4, §5
In the case of an intermediate activity between two classes of the scale, both values are recorded with the one which corresponds to the preeminent activity preceding. […]
as §8

`CCCCN(CCCC)C(=O)c1cccc(C)c1` [PA386, 3,methyl-N,N-di-n.butyl-benzamide, reference compound] was tested, and the “activity on B, 0-4 scale” value [1] was 1-2, the “activity on D, 0-4 scale” value ([2]; 6 kg/ha) was 0-1 and the “activity on F, 0-4 scale” value [3] was 0-1. For the same compound, the “activity on A, 0-4 scale” value [4] was 3, the “activity on C, 0-4 scale” value [5] was 2-3 and the “activity on E, 0-4 scale” value ([6]; 6 kg/ha) was 0-1.

In the case of `O=C(O)c1ccc(Cl)cc1Cl` [PA441, 2,4-dichloro-benzoic acid, reference compound], the “activity on B, 0-4 scale” value [1] is reported as 0, the “activity on D, 0-4 scale” value ([2]; 6 kg/ha) is reported as 0 and the “activity on F, 0-4 scale” value [3] is reported as 0. The “activity on A, 0-4 scale” value [4] was 0, the “activity on C, 0-4 scale” value [5] was 0 and the “activity on E, 0-4 scale” value ([6]; 6 kg/ha) was 0.

For `O=C(O)c1ccc(Cl)c(Cl)c1` [3,4-dichloro-benzoic acid, reference compound], the “activity on B, 0-4 scale” value [1] was 0, the “activity on D, 0-4 scale” value ([2]; 6 kg/ha) was 0 and the “activity on F, 0-4 scale” value [3] was 0. For the same compound, the “activity on A, 0-4 scale” value [4] was 0, the “activity on C, 0-4 scale” value [5] was 0 and the “activity on E, 0-4 scale” value ([6]; 6 kg/ha) was 0.

With `CCCN(CCC)C(=O)c1cccc(Cl)c1` [PA322, 3,chloro-N,N-di-n.propyl-benzamide, reference compound] the “activity on B, 0-4 scale” value [1] was 1-2, the “activity on D, 0-4 scale” value ([2]; 6 kg/ha) was 1 and the “activity on A, 0-4 scale” value [4] was 1. For the same compound, the “activity on C, 0-4 scale” value [5] was 0-1 and the “activity on E, 0-4 scale” value ([6]; 6 kg/ha) was 0-1.

For `CCCN(CCC)C(=O)c1cccc(C)c1` [PA384, 3,methyl-N,N-di-n.propyl-benzamide, reference compound], the “activity on B, 0-4 scale” value [1] was 2, the “activity on D, 0-4 scale” value ([2]; 6 kg/ha) was 1-2 and the “activity on F, 0-4 scale” value [3] was 1-2. For the same compound, the “activity on A, 0-4 scale” value [4] was 1, the “activity on C, 0-4 scale” value [5] was 2 and the “activity on E, 0-4 scale” value ([6]; 6 kg/ha) was 0-1.

`CC(C)N(C(=O)c1ccc(Cl)cc1Cl)C(C)C` [PA281, 2,4-dichloro-N,N-di-isopropyl-benzamide, reference compound] was tested, and the “activity on B, 0-4 scale” value [1] was 2, the “activity on D, 0-4 scale” value ([2]; 6 kg/ha) was 0-1 and the “activity on F, 0-4 scale” value [3] was 0. The “activity on A, 0-4 scale” value [4] was 1-2, the “activity on C, 0-4 scale” value [5] was 0-1 and the “activity on E, 0-4 scale” value ([6]; 6 kg/ha) was 0-1.

In the case of `CCC(C)N(C(=O)c1cc(Cl)c(Cl)c(Cl)c1)C(C)CC` (stereo not drawn) [PA621, 3,4,5-trichloro-N,N-di-sec.butyl-benzamide], the “activity on B, 0-4 scale” value [1] is reported as 2, the “activity on D, 0-4 scale” value ([2]; 6 kg/ha) is reported as 4 and the “activity on F, 0-4 scale” value [3] is reported as 0. For the same compound, the “activity on A, 0-4 scale” value [4] was 2, the “activity on C, 0-4 scale” value [5] was 2 and the “activity on E, 0-4 scale” value ([6]; 6 kg/ha) was 4.

With `CCCCN(CCCC)C(=O)c1ccc(Cl)cc1Cl` [PA282, 2,4-dichloro-N,N-di-n.butyl-benzamide, reference compound] the “activity on B, 0-4 scale” value [1] was 0, the “activity on D, 0-4 scale” value ([2]; 6 kg/ha) was 1 and the “activity on F, 0-4 scale” value [3] was 0-1. For the same compound, the “activity on A, 0-4 scale” value [4] was 2, the “activity on C, 0-4 scale” value [5] was 2 and the “activity on E, 0-4 scale” value ([6]; 6 kg/ha) was 1.

In the case of `CCC(C)N(C(=O)c1ccc(F)c(Br)c1)C(C)CC` (stereo not drawn) [PA518, 3-bromo,4-fluoro-N,N-di-sec.butyl-benzamide], the “activity on B, 0-4 scale” value [1] is reported as 3, the “activity on D, 0-4 scale” value ([2]; 6 kg/ha) is reported as 3-4 and the “activity on F, 0-4 scale” value [3] is reported as 0. For the same compound, the “activity on A, 0-4 scale” value [4] was 2, the “activity on C, 0-4 scale” value [5] was 3 and the “activity on E, 0-4 scale” value ([6]; 6 kg/ha) was 4.

With `CCC(C)N(C(=O)c1cc(Cl)cc(Br)c1)C(C)CC` (stereo not drawn) [PA626, 3-bromo,5-chloro-N,N-di-sec.butyl-benzamide] the “activity on B, 0-4 scale” value [1] was 0-1, the “activity on D, 0-4 scale” value ([2]; 6 kg/ha) was 3-4 and the “activity on F, 0-4 scale” value [3] was 0. The “activity on A, 0-4 scale” value [4] was 1-2, the “activity on C, 0-4 scale” value [5] was 0-1 and the “activity on E, 0-4 scale” value ([6]; 6 kg/ha) was 4.

With `CCN(CC)C(=O)c1ccc(Cl)cc1Cl` [PA283, 2,4-dichloro-N,N-diethyl-benzamide, reference compound] the “activity on B, 0-4 scale” value [1] was 2, the “activity on D, 0-4 scale” value ([2]; 6 kg/ha) was 1 and the “activity on F, 0-4 scale” value [3] was 1. The “activity on A, 0-4 scale” value [4] was 1, the “activity on C, 0-4 scale” value [5] was 1-2 and the “activity on E, 0-4 scale” value ([6]; 6 kg/ha) was 1.

`CCC(C)N(C(=O)c1c(Cl)cc(Cl)cc1Cl)C(C)CC` (stereo not drawn) [PA633, 2,4,6-trichloro-N,N-di-sec.butyl-benzamide] was tested, and the “activity on B, 0-4 scale” value [1] was 2-3, the “activity on D, 0-4 scale” value ([2]; 6 kg/ha) was 4 and the “activity on F, 0-4 scale” value [3] was 0. For the same compound, the “activity on A, 0-4 scale” value [4] was 2, the “activity on C, 0-4 scale” value [5] was 2-3 and the “activity on E, 0-4 scale” value ([6]; 6 kg/ha) was 4.

`O=C(O)c1cccc(Br)c1` [PA577, 3,bromo-benzoic acid, reference compound] was tested, and the “activity on B, 0-4 scale” value [1] was 0, the “activity on D, 0-4 scale” value ([2]; 6 kg/ha) was 0 and the “activity on F, 0-4 scale” value [3] was 0. For the same compound, the “activity on A, 0-4 scale” value [4] was 0, the “activity on C, 0-4 scale” value [5] was 0 and the “activity on E, 0-4 scale” value ([6]; 6 kg/ha) was 0.

With `CCCCN(CCCC)C(=O)c1cccc(Br)c1` [PA396, 3-bromo-N,N-di-n,butyl-benzamide, reference compound] the “activity on B, 0-4 scale” value [1] was 1-2, the “activity on D, 0-4 scale” value ([2]; 6 kg/ha) was 0-1 and the “activity on F, 0-4 scale” value [3] was 0. For the same compound, the “activity on A, 0-4 scale” value [4] was 1, the “activity on C, 0-4 scale” value [5] was 0-1 and the “activity on E, 0-4 scale” value ([6]; 6 kg/ha) was 0.

With `CCC(C)N(C(=O)c1cc(Cl)ccc1Br)C(C)CC` (stereo not drawn) [PA504, 2-bromo,5-chloro-N,N-di-sec.butyl-benzamide] the “activity on B, 0-4 scale” value [1] was 1-2, the “activity on D, 0-4 scale” value ([2]; 2 kg/ha) was 2-3 and the “activity on D, 0-4 scale” value ([2]; 3 kg/ha) was 2-3. The “activity on D, 0-4 scale” value ([2]; 4 kg/ha) was 3, the “activity on D, 0-4 scale” value ([2]; 6 kg/ha) was 3-4 and the “activity on F, 0-4 scale” value [3] was 0-1. For the same compound, the “activity on A, 0-4 scale” value [4] was 2, the “activity on C, 0-4 scale” value [5] was 2 and the “activity on E, 0-4 scale” value ([6]; 2 kg/ha) was 2-3. The “activity on E, 0-4 scale” value ([6]; 3 kg/ha) was 3, the “activity on E, 0-4 scale” value ([6]; 4 kg/ha) was 3-4 and the “activity on E, 0-4 scale” value ([6]; 6 kg/ha) was 4.

`CCCCN(C(=O)c1cccc(Br)c1)C(C)CC` (stereo not drawn) [PA525, 3-bromo-N,n.butyl-N-sec.butyl-benzamide] was tested, and the “activity on B, 0-4 scale” value [1] was 0-1, the “activity on D, 0-4 scale” value ([2]; 6 kg/ha) was 3 and the “activity on F, 0-4 scale” value [3] was 0. For the same compound, the “activity on A, 0-4 scale” value [4] was 1-2, the “activity on C, 0-4 scale” value [5] was 1 and the “activity on E, 0-4 scale” value ([6]; 6 kg/ha) was 3-4.

`CC(C)CN(CC(C)C)C(=O)c1ccc(Cl)c(Cl)c1` [PA259, 3,4-dichloro-N,N-di-iso-butyl-benzamide, reference compound] was tested, and the “activity on B, 0-4 scale” value [1] was 2, the “activity on F, 0-4 scale” value [3] was 0-1 and the “activity on A, 0-4 scale” value [4] was 1-2. The “activity on C, 0-4 scale” value [5] was 1-2.

In the case of `O=C(O)c1cc(Cl)cc(Cl)c1` [PA440, 3,5-dichloro-benzoic acid, reference compound], the “activity on B, 0-4 scale” value [1] is reported as 0, the “activity on D, 0-4 scale” value ([2]; 6 kg/ha) is reported as 0 and the “activity on F, 0-4 scale” value [3] is reported as 0. For the same compound, the “activity on A, 0-4 scale” value [4] was 0, the “activity on C, 0-4 scale” value [5] was 0 and the “activity on E, 0-4 scale” value ([6]; 6 kg/ha) was 0.

With `Cc1cccc(C(=O)N(C(C)C)C(C)C)c1` [PA385, 3,methyl-N,N-di-isopropyl-benzamide, reference compound] the “activity on B, 0-4 scale” value [1] was 2, the “activity on F, 0-4 scale” value [3] was 0-1 and the “activity on A, 0-4 scale” value [4] was 1-2. For the same compound, the “activity on C, 0-4 scale” value [5] was 1 and the “activity on E, 0-4 scale” value ([6]; 6 kg/ha) was 0-1.

In the case of `CCC(C)N(C(=O)c1ccc(Cl)c(I)c1)C(C)CC` (stereo not drawn) [PA614, 4-chloro,3-iodo-N,N-di-sec.butyl-benzamide], the “activity on B, 0-4 scale” value [1] is reported as 0-1, the “activity on D, 0-4 scale” value ([2]; 6 kg/ha) is reported as 3 and the “activity on F, 0-4 scale” value [3] is reported as 0. For the same compound, the “activity on A, 0-4 scale” value [4] was 1 and the “activity on C, 0-4 scale” value [5] was 1.

For `CCC(C)N(CC(C)C)C(=O)c1ccc(Cl)c(Cl)c1` (stereo not drawn) [PA566, 3,4-dichloro-N-isobutyl,N-sec.butyl-benzamide], the “activity on B, 0-4 scale” value [1] was 2-3, the “activity on F, 0-4 scale” value [3] was 0-1 and the “activity on A, 0-4 scale” value [4] was 3. The “activity on C, 0-4 scale” value [5] was 3 and the “activity on E, 0-4 scale” value ([6]; 6 kg/ha) was 4.
